The data set in a line: pKa value by using fluorescence emission spectra. The data set is classed as physicochemical.

Broadly, the pKa is the negative logarithm of the acid dissociation constant.

Compound `CN(C)c1ccc2c(-c3cc(C(=O)O)ccc3C(=O)O)c3ccc4c(F)c(=O)ccc4c3oc2c1` returned a pKa of 6.4.
In turn, `CN(C)c1ccc2c(-c3cc(C(=O)O)ccc3C(=O)O)c3ccc4cc(=O)ccc4c3oc2c1` yielded a pKa of 7.5.
The figure for `CN(C)c1ccc2c(-c3cc(C(=O)O)ccc3C(=O)O)c3cc(F)c4cc(=O)ccc4c3oc2c1` is 7.2.

The values are drawn from ChEMBL document CHEMBL1134427, “Synthesis and photophysical properties of new fluorinated benzo[c]xanthene dyes as intracellular pH indicators” (Bioorg Med Chem Lett, 2001).
